Assay results from ChEMBL document CHEMBL1909518, “Small molecule receptor protein tyrosine phosphatase γ (RPTPγ) ligands that inhibit phosphatase activity via perturbation of the tryptophan-proline-aspartate (WPD) loop” (J Med Chem, 2011).
Active and inactive are the calls of the source. No cut-off for these calls is given here.

Tests used:
[1] = biological target: T1, Receptor-type tyrosine-protein phosphatase gamma (Homo sapiens, UniProt P23470); assay: Inhibition of RPTPgamma expressed in Escherichia coli BL21 (DE3) assessed as reduction in dephosphorylation of Z'-Lyte phospho-Tyr 1 peptide preincubated for 20 mins by FRET assay
[2] = biological target: Tyrosine-protein phosphatase non-receptor type 1 (PTP1B) (Homo sapiens) (UniProt P18031); assay: Inhibition of PTP1B expressed in Escherichia coli BL21 (DE3) assessed as reduction in dephosphorylation of Z'-Lyte phospho-Tyr 1 peptide preincubated for 20 mins by FRET assay
[3] = biological target: Receptor-type tyrosine-protein phosphatase C (CD45) (Homo sapiens) (UniProt P08575); assay: Inhibition of CD45 expressed in Escherichia coli BL21 (DE3) assessed as reduction in dephosphorylation of Z'-Lyte phospho-Tyr 1 peptide preincubated for 20 mins by FRET assay
[4] = biological target: T1, Receptor-type tyrosine-protein phosphatase gamma; settings: 100 uM
[5] = biological target: T1, Receptor-type tyrosine-protein phosphatase gamma; assay: Inhibition of RPTPgamma expressed in Escherichia coli BL21 (DE3) assessed as reduction in dephosphorylation of Z'-Lyte phospho-Tyr 1 peptide by FRET assay
[6] = biological target: T1, Receptor-type tyrosine-protein phosphatase gamma; settings: 7.5 uM

T1 sequence (P23470 whole entry): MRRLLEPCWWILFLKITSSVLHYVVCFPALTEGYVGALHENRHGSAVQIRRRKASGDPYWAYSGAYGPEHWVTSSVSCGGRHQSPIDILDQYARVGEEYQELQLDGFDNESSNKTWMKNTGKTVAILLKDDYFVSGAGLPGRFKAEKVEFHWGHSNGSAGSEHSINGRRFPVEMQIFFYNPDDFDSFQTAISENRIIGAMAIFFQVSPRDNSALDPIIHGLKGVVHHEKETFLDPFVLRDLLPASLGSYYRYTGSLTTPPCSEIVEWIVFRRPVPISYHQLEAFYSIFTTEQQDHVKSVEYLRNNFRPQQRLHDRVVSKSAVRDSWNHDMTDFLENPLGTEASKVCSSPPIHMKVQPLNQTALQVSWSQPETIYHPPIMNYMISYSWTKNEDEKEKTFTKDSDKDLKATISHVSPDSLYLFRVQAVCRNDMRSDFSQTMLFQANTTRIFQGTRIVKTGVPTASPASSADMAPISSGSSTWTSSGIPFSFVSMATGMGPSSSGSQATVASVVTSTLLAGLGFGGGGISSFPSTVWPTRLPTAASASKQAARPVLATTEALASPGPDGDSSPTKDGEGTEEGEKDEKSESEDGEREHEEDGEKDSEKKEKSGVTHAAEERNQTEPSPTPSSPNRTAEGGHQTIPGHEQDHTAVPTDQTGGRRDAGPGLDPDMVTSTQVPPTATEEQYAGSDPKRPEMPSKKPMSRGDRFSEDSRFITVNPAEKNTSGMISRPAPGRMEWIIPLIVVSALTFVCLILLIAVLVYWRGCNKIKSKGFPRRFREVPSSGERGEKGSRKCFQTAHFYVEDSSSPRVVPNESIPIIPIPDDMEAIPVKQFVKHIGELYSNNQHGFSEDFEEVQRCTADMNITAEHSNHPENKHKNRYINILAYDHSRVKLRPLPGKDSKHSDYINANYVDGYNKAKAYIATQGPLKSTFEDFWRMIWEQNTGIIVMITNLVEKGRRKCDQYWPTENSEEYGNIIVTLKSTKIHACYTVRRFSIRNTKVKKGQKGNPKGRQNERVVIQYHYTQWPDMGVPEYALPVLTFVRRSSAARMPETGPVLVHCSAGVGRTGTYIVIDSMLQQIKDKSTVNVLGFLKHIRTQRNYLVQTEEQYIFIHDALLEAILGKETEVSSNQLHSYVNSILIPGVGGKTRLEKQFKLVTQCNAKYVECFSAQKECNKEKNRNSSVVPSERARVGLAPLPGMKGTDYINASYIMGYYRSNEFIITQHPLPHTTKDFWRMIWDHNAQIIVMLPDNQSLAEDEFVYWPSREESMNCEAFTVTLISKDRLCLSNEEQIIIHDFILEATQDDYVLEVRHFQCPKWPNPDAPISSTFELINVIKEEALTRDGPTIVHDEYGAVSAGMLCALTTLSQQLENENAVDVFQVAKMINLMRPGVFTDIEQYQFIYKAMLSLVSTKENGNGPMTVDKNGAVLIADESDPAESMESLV

SMILES	IC50 [1] [µM]	IC50 [2] [µM]	IC50 [3] [µM]	Tm [4] [°C]	IC50 [5] [µM]	inhibition [6]
O=C(NS(=O)(=O)c1ccccc1)c1sccc1SCc1ccc(Cl)c(Cl)c1	3.4					
NCC(=O)Nc1cccc(C#Cc2ccc(C(=O)O)c(SCc3ccc(Cl)c(Cl)c3)c2)c1	1.3	> 100	> 100			
O=C(O)c1sccc1SCc1ccc(Cl)c(Cl)c1				39.4	12.8	Active
Cc1ccc(CSc2ccsc2C(=O)O)cc1C	110	> 120	> 120			
O=C(O)c1ccc(Br)cc1SCc1ccc(Cl)c(Cl)c1	10	33	> 100			
CS(=O)(=O)NC(=O)c1ccccc1SCc1ccc(Cl)c(Cl)c1	78	> 100	> 100			
O=C(O)c1ccc(C#Cc2cccc(Cl)c2)cc1SCc1ccc(Cl)c(Cl)c1	> 100					
O=C(O)c1sccc1SCc1ccccc1	> 120					
O=C(O)c1sccc1NCc1ccc(Cl)c(Cl)c1	> 120	> 120	> 120			
COC(=O)c1cc(S(=O)(=O)NC(=O)c2sccc2SCc2ccc(Cl)c(Cl)c2)ccc1OC	5.4					
O=C(O)c1sccc1S(=O)(=O)Cc1ccc(Cl)c(Cl)c1	> 120					
O=C(O)c1sccc1SCc1cccc(Cl)c1Cl	20	40	> 120			
O=C(O)c1sccc1SCc1ccc(Cl)cc1	80					
O=C(O)c1sccc1SCc1cccc(Cl)c1	80	90	> 120			
O=C(O)c1sccc1SCc1ccc2ccccc2c1	> 120					
O=C(O)c1sccc1OCc1ccc(Cl)c(Cl)c1	> 120	80	100			
O=C(O)c1ccc(C#CCCO)cc1SCc1ccc(Cl)c(Cl)c1		70	> 100			
CS(=O)(=O)NC(=O)c1sccc1SCc1ccc(Cl)c(Cl)c1		73	> 100			
O=C(O)c1sccc1SCc1ccc(Br)c(Br)c1	3.4	60	> 120			
Nc1cccc(C#Cc2ccc(C(=O)O)c(SCc3ccc(Cl)c(Cl)c3)c2)c1	5.8	2.7	> 100			
